Converted amounts (≈) assume the structure as drawn.
Legend:
[1] = Cytotoxicity against mouse peritoneal macrophages after 72 hrs by MTT assay; assay type: cell-based, Peritoneal macrophage cell
[2] = test system: Leishmania amazonensis; assay: Leishmanicidal activity against promastigote form of Leishmania amazonensis MHOM/BR/71973/M2269 after 72 hrs by cell counting; assay type: functional, organism-based; settings: MHOM/BR/71973/M2269, 72 h
[3] = Selectivity index, ratio of CC50 for mouse peritoneal macrophages to IC50 for promastigote form of Leishmania amazonensis MHOM/BR/71973/M2269; assay type: functional
[4] = test system: Leishmania amazonensis; assay: Ratio of 4,4'-dihydroxybenzophenone IC50 to compound IC50 for spromastigote forms of Leishmania amazonensis MHOM/BR/71973/M2269 after 72 hrs by cell counting; assay type: functional

SMILES | CC50 at 72 h [1] | IC50 [2] | Ratio CC50/IC50 [3] | Ratio IC50 [4]
O=C(c1ccccc1)c1ccc(O)cc1 | > 160 µg/mL | 40.9 µg/mL (≈ 206 µM) | – | –
O=C(c1ccc(O)cc1)c1ccc(O)cc1 | > 160 µg/mL | 121 µg/mL (≈ 567 µM) | – | –
COc1ccc(C(=O)c2ccccc2)cc1 | 28 µg/mL (≈ 132 µM) | 5.05 µg/mL (≈ 23.8 µM) | – | –
CCCCOc1ccc(C(=O)c2ccccc2)c(O)c1 | 40.6 µg/mL (≈ 150 µM) | 9.8 µg/mL (≈ 36.3 µM) | – | –
CC(C)=CCOc1ccc(C(=O)c2ccccc2)c(O)c1 | 140 µg/mL (≈ 496 µM) | 7.05 µg/mL (≈ 25 µM) | 19.86 | –
CCCCOc1ccc(C(=O)c2ccccc2)cc1 | 28.9 µg/mL (≈ 114 µM) | 8.56 µg/mL (≈ 33.7 µM) | – | –
CC(C)=CCOc1ccc(C(=O)c2ccccc2)cc1 | 87.1 µg/mL (≈ 327 µM) | 7.82 µg/mL (≈ 29.4 µM) | – | –
CCCCOc1ccc(C(=O)c2ccc(OCCCC)cc2)cc1 | > 160 µg/mL | 23.8 µg/mL (≈ 72.9 µM) | – | –
CC(C)=CCOc1ccc(C(=O)c2ccc(OCC=C(C)C)cc2)cc1 | > 160 µg/mL | 5.94 µg/mL (≈ 16.9 µM) | 26.93 | 250
O=C(c1ccccc1)c1ccc(O)cc1O [2,4-DIHYDROXYBENZOPHENONE] | > 160 µg/mL | 29 µg/mL (≈ 135 µM) | – | –
C[C@@H]1[C@H](O)[C@@H](C)/C=C/C=C/C=C/C=C/C=C/C=C/C=C/[C@H](O[C@@H]2O[C@H](C)[C@@H](O)[C@H](N)[C@@H]2O)C[C@@H]2O[C@](O)(C[C@@H](O)C[C@@H](O)[C@H](O)CC[C@@H](O)C[C@@H](O)CC(=O)O[C@H]1C)C[C@H](O)[C@H]2C(=O)O [AMPHOTERICIN B] | 25 µg/mL (≈ 27.1 µM) | 4.7 µg/mL (≈ 5.09 µM) | 5.32 | –
COc1ccc(C(=O)c2ccccc2)c(O)c1 [OXYBENZONE] | 24.6 µg/mL (≈ 108 µM) | 4.9 µg/mL (≈ 21.5 µM) | – | –
N=C(N)c1ccc(OCCCCCOc2ccc(C(=N)N)cc2)cc1 [PENTAMIDINE] | 3.82 µg/mL (≈ 11.2 µM) | 0.44 µg/mL (≈ 1.29 µM) | 8.68 | –

Reference: ChEMBL document CHEMBL2413026, “Synthesis and biological evaluation against Leishmania amazonensis of a series of alkyl-substituted benzophenones” (Bioorg Med Chem, 2013)
